“Also recorded” adds a separate entry of the source. Where two headings read alike, the source gives them in different places.
How the values were obtained:
[1] = Solubility of sodium oxybate (GHB) in aqueous solution versus pH; conditions: for State of 1000 mg/cc solution: pH unadjusted
[2] = alcohol dependent patients, cited from earlier work
[3] = Safety assessment in the pharmacokinetic study (adverse experiences, physical examination); type: in vivo, human
Protocol: Follow-up occurred within 48 h after the last blood sample had been collected. An abbreviated physical examination which included vital signs measurement was performed. Adverse experiences and concomitant medication use, if any, were assessed. Any ongoing adverse experiences and clinically important findings in a patient were followed to the investigator's and/or sponsor's satisfaction before the patient was discharged from the study.
An adverse experience are any undesirable event experienced by a patient or volunteer whether or not considered drug-related by the investigator. An undesirable event can be, but is not limited to, subjective symptoms experienced by a patient or, objective findings such as significant clinical laboratory abnormalities. Adverse experience is considered synonymous with the term “adverse event”.
The investigators report in detail all adverse experiences and symptoms that occurred during or following the course of trial drug administration for up to 2 days. Included in the description was the nature of the sign or symptom; the date of onset; date or resolution (duration); the severity; the relationship to trial treatment or other therapy; the action taken, if any; and the outcome.
Safety Analyses: Results of physical examinations, vital signs, clinical laboratory data were summarized in tabular form and presented by patient number. […]

[4] = Pharmacokinetics of GHB after two consecutive 3 g oral doses in narcoleptic patients; type: in vivo, human; conditions: for Cmax: po, read-out: maximum GHB concentration (Cmax), mean ±SD
Protocol: The objective of this study was to assess the pharmacokinetics of GHB after oral administration of two consecutive single doses of GHB (3 g/dose; patients generally ingested the first dose of this medication prior to bedtime and the second dose from 2.5 to 4.0 h later) to narcoleptic patients who are maintained on a chronic regimen of GHB.
This pharmacokinetic study was conducted as an open-label, single-center investigation in 6 narcoleptic patients. The study design is summarized as follows:
Before oral administration of the first GHB dose, an indwelling catheter was placed in an arm vein and a baseline blood sample was collected. Each patient then ingested a 3 g dose of GHB before bedtime. Another 3 g GHB dose was administered 4 h after the first dose. Twenty-one sequential blood samples were collected over 12 h (starting at 10 min after the first dose and ending at 8 h after the second dose). Upon completion of the treatment phase, a follow-up physical examination which included the measurement of vital signs was performed on each patient within 48 h after the last blood sample. A detailed description of the trial methodology is presented in Section IV.
All patients were hospitalized from approximately four hours prior to first GHB dosing (around 6 p.m.) until the end of the treatment period (around 10 a.m. the next morning). Patients ate their dinner at the clinical research unit soon after arrival and fasted until breakfast next morning. At least three hours elapsed between the completion of dinner and the administration of the first GHB dose. An indwelling catheter was placed in an arm vein of each patient for blood sampling at approximately 30 min and 1 h before the first GHB dose and a baseline blood sample (5 mL) was collected.
The first GHB dose (3 g) was administered at around 10 p.m. Dosing of individual patients were staggered. The second GHB dose was administered at 4 h after the first GHB dose (i.e. immediately after the 4 h blood sample). The exact dosing times in each patient were recorded on appropriate CRF pages. Blood samples (5 mL each) were collected through the indwelling catheter into heparinized tubes at 0.2, 0.4, 0.6, 0.8, 1, 1.5, 2, 3, 4, 4.2, 4.4, 4.6, […], 5, 5.5, […], 7, 8, 10, and 12 h after the first GHB dose. Blood samples were processed according to the procedures described herein. Patients were monitored for adverse experiences throughout the study according to the specific procedures.
Dose Administration: The investigator or designee prepared the oral solution for dosing within 30 min prior to the first oral administration to individual patients. The contents of one twin-pouch was emptied into a dosing cup to which two ounces of water were added. After replacing the lid of the dosing cup, it was gently shaken to dissolve the GHB and excipient in water. The GHB solution was ingested in its entirety. Likewise, the second GHB dosing solution was prepared in the same manner and was ingesting in its entirety at 4 h after the first GHB dose.
Plasma samples were analyzed for GHB by the Department of Bioanalytical Chemistry (Covance (previously known as Hazelton Corning), Madison, Wis.) A gas chromatographic method with mass selective detection (GC-MSD) was used in the analysis.
Pharmacokinetic Analysis: Pharmacokinetic parameters were determined for individual sets of plasma GHB concentration vs. time data using the non-compartmental routine in WinNonlin Version 1.1. The peak GHB concentrations (Cmax) and the times of their respectively occurrences (tmax) were observed values. Terminal half-life (T1/2) was obtained by log-linear regression analysis of the terminal phase of concentration vs. time curves. The area under the curve (AUCinf) and the area under the first moment curve (AUMCinf) were calculated by the linear trapezoidal rule up to the last determined concentration and included extrapolated areas to time infinity. Apparent oral clearance (CL/F) was calculated as Dose/AUCinf. […]

O=C(O)CCCO [GHB, gamma-hydroxybutyrate]
solubility ([1]; aqueous medium, 25 °C, thermodynamic from solid): ≤ 750 mg/mL
solubility ([1]; aqueous medium, 100 °C, thermodynamic from solid): ≥ 1000 mg/mL
apparent oral clearance ([2]; 25 mg/kg dose (Ferrara, 1992)): 8.1 ± 4.8 mL/min/kg
apparent oral clearance ([2]; dose of 50 mg/kg (Ferrara, 1992)): 5.3 ± 2.2 mL/min/kg
adverse experiences / tolerability ([3]; narcoleptic patients, two 3 g oral doses): No adverse experiences were reported; also recorded: well tolerated
follow-up physical examination results ([3]; screen versus follow-up, per individual patient): did not identify any changes attributable to GHB
highest plasma GHB concentration observed in the study ([4]; Subject 101 after the second 3 g GHB dose): 125.0 µg/mL
mean observed time to maximum concentration ([4]; after the first GHB dose): 40 ± 6 min
mean observed time to maximum concentration ([4]; after the second GHB dose): 36 ± 7 min
time by which plasma GHB concentrations were no longer detectable ([4]; after the second GHB dose (10 h after the first GHB dose)): ≤ 6 h
Tmax ([4]; human, plasma, oral, 3 g, after dosing (discussion)): ~40 min
concentration at 4 h ([4]; human, plasma, oral, 3 g, at h 4 after the first GHB dose, in three of six patients, read-out: residual GHB levels): ~15 µg/mL
half-life ([4]; human, plasma, oral, narcoleptic patients, read-out: elimination half-life of GHB): < 60 min
half-life ([4]; human, plasma, oral, terminal phase of the second GHB dose, read-out: mean GHB T1/2 (elimination half-life)): 53 ± 19 min
Cmax ([4]; human, plasma, 3 g, first 3 g oral GHB dose, 6 narcoleptic patients): 62.8 ± 27.4 µg/mL
Cmax ([4]; human, plasma, 3 g, second 3 g oral GHB dose (4 h after the first)): 91.2 ± 25.6 µg/mL
AUC(0-inf) ([4]; human, plasma, two 3 g oral doses 4 h apart, read-out: mean AUCinf (converted)): 296 µg·h/mL
CL/F ([4]; human, plasma, two 3 g oral doses 4 h apart, read-out: mean CL/F (apparent oral clearance)): 4.2 ± 1 mL/min/kg
MRT inf ([4]; human, plasma, two 3 g oral doses 4 h apart, read-out: mean MRTinf (converted)): 249 min
Vd/F ([4]; human, plasma, two 3 g oral doses 4 h apart, read-out: mean Vz/F): 0.307 ± 0.096 L/kg
mean GHB T1/2 (elimination half-life) ([4]; terminal phase of the second GHB dose): ~35 min

O=C(O)CCCO [Sodium Oxybate, sodium oxybate]
solubility ([1]; 500 mg/cc with Malic Acid at pH 5.0): not soluble
solubility ([1]; aqueous medium, 25 °C, pH 4, aqueous buffer, thermodynamic from solid): 450 mg/mL
solubility ([1]; aqueous medium, 25 °C, pH 5, aqueous buffer, thermodynamic from solid): 500 mg/mL
solubility ([1]; aqueous medium, 25 °C, pH 6, aqueous buffer, thermodynamic from solid): 600 mg/mL
solubility ([1]; aqueous medium, 25 °C, pH 6.8, aqueous buffer, thermodynamic from solid): 750 mg/mL
solubility ([1]; aqueous medium, 25 °C, pH 10.3, thermodynamic from solid): ≥ 750 mg/mL
solubility ([1]; aqueous medium, 65 °C, thermodynamic from solid): 1000 mg/mL
Maxium Solubility ([1]; pH 4 (HCl), 25°): 450 mg/cc
Maxium Solubility ([1]; pH 5 (HCl), 25°): 500 mg/cc
Maxium Solubility ([1]; pH 6 (HCl), 25°): 600 mg/cc
Maxium Solubility ([1]; pH 6.8 (HCl), 25°): 750 mg/cc
Maxium Solubility ([1]; pH 10.3, 25°): 750 mg/cc +
Maxium Solubility ([1]; pH (unadjusted), 65° Soluble, 25° Gel): 1000 mg/cc
State of 1000 mg/cc solution ([1]; 25°): Gel
State of 1000 mg/cc solution ([1]; 65°): Soluble,
